For data set [1] the following is noted: high permeability, low water solubility; cited from earlier work.
The format of data set [2] is physicochemical. The settings on record: binary system favipiravir-SC-CO2, from model.
The nature of data set [3]: Solubility of favipiravir in supercritical CO2. The format is physicochemical.
For data set [4] the following is noted: cited from earlier work.
The mark [5] stands for this setting: SC-CO2, 12.16–35.46 MPa, 308–348 K.
[6] abbreviates: SC-CO2, 18.3–33.5 MPa, 308–328 K.
Where [7] appears, read: SC-CO2, 12–33 MPa, 308.15–338.15 K.
[8] abbreviates: SC-CO2, 12–27 MPa, 308.2–338.2 K.

Where a name gives a salt, the structure may show the parent alone. Read-outs that look alike come from different tables or passages of the source.

On to `NC(=O)c1nc(F)c[nH]c1=O` [Favipiravir], for which the “class in the Biopharmaceutics Classification System (BCS)” value in data set [1] was “class II”. In addition, the “total heat (ΔHtotal)” value in data set [2] was 16.75 kcal/mol. Besides, the “vaporization heat (ΔHvap)” value in data set [2] is 21.54 kcal/mol. In addition, the “y2 × 10^4 (Mole Fraction)” value in data set [3] (SC-CO2, 308 K, 12 MPa, density 768.42 kg/m^3) turned out to be 0.53 mole fraction × 10^4; in data set [3] (SC-CO2, 308 K, 15 MPa, density 816.06 kg/m^3), 0.87 mole fraction × 10^4; in data set [3] (SC-CO2, 308 K, 18 MPa, density 848.87 kg/m^3), 1.44 mole fraction × 10^4; in data set [3] (SC-CO2, 308 K, 21 MPa, density 874.40 kg/m^3), 2.31 mole fraction × 10^4; in data set [3] (SC-CO2, 308 K, 24 MPa, density 895.54 kg/m^3), 3.42 mole fraction × 10^4; in data set [3] (SC-CO2, 308 K, 27 MPa, density 913.69 kg/m^3) it was 4.09 mole fraction × 10^4. Further, the “y2 × 10^4 (Mole Fraction)” value in data set [3] (SC-CO2, 308 K, 30 MPa, density 929.68 kg/m^3) was determined as 5.13 mole fraction × 10^4; in data set [3] (SC-CO2, 318 K, 12 MPa, density 659.73 kg/m^3), 0.37 mole fraction × 10^4; in data set [3] (SC-CO2, 318 K, 15 MPa, density 743.17 kg/m^3) it was 0.80 mole fraction × 10^4; in data set [3] (SC-CO2, 318 K, 18 MPa, density 790.18 kg/m^3) it was 1.30 mole fraction × 10^4; in data set [3] (SC-CO2, 318 K, 21 MPa, density 823.70 kg/m^3), 2.72 mole fraction × 10^4; in data set [3] (SC-CO2, 318 K, 24 MPa, density 850.10 kg/m^3) it was 4.29 mole fraction × 10^4. Besides, the “y2 × 10^4 (Mole Fraction)” value amounted to 5.41 mole fraction × 10^4 in data set [3] (SC-CO2, 318 K, 27 MPa, density 872.04 kg/m^3); 6.48 mole fraction × 10^4 in data set [3] (SC-CO2, 318 K, 30 MPa, density 890.92 kg/m^3); 0.08 mole fraction × 10^4 in data set [3] (SC-CO2, 328 K, 12 MPa, density 506.85 kg/m^3); 0.60 mole fraction × 10^4 in data set [3] (SC-CO2, 328 K, 15 MPa, density 654.94 kg/m^3); 1.39 mole fraction × 10^4 in data set [3] (SC-CO2, 328 K, 18 MPa, density 724.13 kg/m^3); 3.21 mole fraction × 10^4 in data set [3] (SC-CO2, 328 K, 21 MPa, density 768.74 kg/m^3). Also, the “y2 × 10^4 (Mole Fraction)” value is 4.75 mole fraction × 10^4 in data set [3] (SC-CO2, 328 K, 24 MPa, density 801.92 kg/m^3); 6.58 mole fraction × 10^4 in data set [3] (SC-CO2, 328 K, 27 MPa, density 828.51 kg/m^3); 7.65 mole fraction × 10^4 in data set [3] (SC-CO2, 328 K, 30 MPa, density 850.83 kg/m^3); 0.03 mole fraction × 10^4 in data set [3] (SC-CO2, 338 K, 12 MPa, density 384.17 kg/m^3); 0.37 mole fraction × 10^4 in data set [3] (SC-CO2, 338 K, 15 MPa, density 555.23 kg/m^3); 1.32 mole fraction × 10^4 in data set [3] (SC-CO2, 338 K, 18 MPa, density 651.18 kg/m^3). Moreover, the “y2 × 10^4 (Mole Fraction)” value in data set [3] (SC-CO2, 338 K, 21 MPa, density 709.69 kg/m^3) was 3.92 mole fraction × 10^4; in data set [3] (SC-CO2, 338 K, 24 MPa, density 751.17 kg/m^3), 5.6 mole fraction × 10^4; in data set [3] (SC-CO2, 338 K, 27 MPa, density 783.29 kg/m^3), 7.57 mole fraction × 10^4; in data set [3] (SC-CO2, 338 K, 30 MPa, density 809.58 kg/m^3) it was 9.05 mole fraction × 10^4.
For `CCC(C)(C)C(=O)O[C@H]1C[C@@H](C)C=C2C=C[C@H](C)[C@H](CC[C@@H]3C[C@@H](O)CC(=O)O3)[C@H]21` [Simvastatin], in data set [4] (setting [5]), the “Crossover (MPa)” value was 17 MPa and the “Mole fraction (y)” value is 2 × 10^−6 to 5.35 × 10^−4.
`C[C@]12C/C(=C/O)C(=O)C[C@@H]1CC[C@@H]1[C@@H]2CC[C@@]2(C)[C@H]1CC[C@]2(C)O` [Oxymetholone]: in data set [4] (setting [6]), the “Crossover (MPa)” value is listed as 18 MPa and the “Mole fraction (y)” value is 1.6 × 10^−5 to 1.49 × 10^−4.
In the case of `C[C@@H](O[C@H]1OCCN(Cc2n[nH]c(=O)[nH]2)[C@H]1c1ccc(F)cc1)c1cc(C(F)(F)F)cc(C(F)(F)F)c1` [Aprepitant], in data set [4] (setting [7]), the “Crossover (MPa)” value is 15–18 MPa and the “Mole fraction (y)” value is on record as 4.50 × 10^−6 to 7.67 × 10^−5.
Regarding `Cc1ccc(NC(=O)c2ccc(CN3CCN(C)CC3)cc2)cc1Nc1nccc(-c2cccnc2)n1` [Imatinib mesylate], in data set [4] (setting [8]), the “Crossover (MPa)” value was 18–21 MPa and the “Mole fraction (y)” value is on record as 1.0 × 10^−7 to 4.4 × 10^−6.
As for `CC(C)N1c2ccccc2C(C)(C)C12C=Nc1c(cc(N3CCc4ccccc43)c3ccccc13)O2` (stereo not shown) [1,3-dihydro-3,3-dimethyl-1-isopropyl-6-(2,3)-(dihydroindole-1-yl)spiro[2 H-indole-2,3 − 3 H-naphtho[2,1-b][1,4]oxazine]], in data set [4] (SC-CO2, 10–26 MPa, 308–328 K), the “Crossover (MPa)” value is 17 MPa and the “Mole fraction (y)” value was 2.2 × 10^-7 to 5.05 × 10^-6.
Turning to `COc1ccc2nc([S@@+]([O-])Cc3ncc(C)c(OC)c3C)[nH]c2c1` [Esomeprazole], in data set [4] (setting [8]), the “Crossover (MPa)” value is recorded as 22 MPa and the “Mole fraction (y)” value is reported as 1.11 × 10^-5 to 9.10 × 10^-4.

Source of the values: article PMC8815272 (The Journal of Supercritical Fluids, 2022).
